Our source for the IC50, solubility and inhibition values is ChEMBL document CHEMBL2016491, “Synthesis and structure-activity relationships of (aryloxy)quinazoline ureas as novel, potent, and selective vascular endothelial growth factor receptor-2 inhibitors” (J Med Chem, 2012).

Bounds are passed on as bounds.

Series [1] deals with Epidermal growth factor receptor (Homo sapiens, UniProt P00533). Description: Inhibition of human EGFR expressed in human A431 cells using poly(Glu4/Tyr) and [gamma32P]ATP as substrate after 1 hr by scintillation counting. More on the design: species or system A-431.
Sequence of Epidermal growth factor receptor (P00533 whole entry): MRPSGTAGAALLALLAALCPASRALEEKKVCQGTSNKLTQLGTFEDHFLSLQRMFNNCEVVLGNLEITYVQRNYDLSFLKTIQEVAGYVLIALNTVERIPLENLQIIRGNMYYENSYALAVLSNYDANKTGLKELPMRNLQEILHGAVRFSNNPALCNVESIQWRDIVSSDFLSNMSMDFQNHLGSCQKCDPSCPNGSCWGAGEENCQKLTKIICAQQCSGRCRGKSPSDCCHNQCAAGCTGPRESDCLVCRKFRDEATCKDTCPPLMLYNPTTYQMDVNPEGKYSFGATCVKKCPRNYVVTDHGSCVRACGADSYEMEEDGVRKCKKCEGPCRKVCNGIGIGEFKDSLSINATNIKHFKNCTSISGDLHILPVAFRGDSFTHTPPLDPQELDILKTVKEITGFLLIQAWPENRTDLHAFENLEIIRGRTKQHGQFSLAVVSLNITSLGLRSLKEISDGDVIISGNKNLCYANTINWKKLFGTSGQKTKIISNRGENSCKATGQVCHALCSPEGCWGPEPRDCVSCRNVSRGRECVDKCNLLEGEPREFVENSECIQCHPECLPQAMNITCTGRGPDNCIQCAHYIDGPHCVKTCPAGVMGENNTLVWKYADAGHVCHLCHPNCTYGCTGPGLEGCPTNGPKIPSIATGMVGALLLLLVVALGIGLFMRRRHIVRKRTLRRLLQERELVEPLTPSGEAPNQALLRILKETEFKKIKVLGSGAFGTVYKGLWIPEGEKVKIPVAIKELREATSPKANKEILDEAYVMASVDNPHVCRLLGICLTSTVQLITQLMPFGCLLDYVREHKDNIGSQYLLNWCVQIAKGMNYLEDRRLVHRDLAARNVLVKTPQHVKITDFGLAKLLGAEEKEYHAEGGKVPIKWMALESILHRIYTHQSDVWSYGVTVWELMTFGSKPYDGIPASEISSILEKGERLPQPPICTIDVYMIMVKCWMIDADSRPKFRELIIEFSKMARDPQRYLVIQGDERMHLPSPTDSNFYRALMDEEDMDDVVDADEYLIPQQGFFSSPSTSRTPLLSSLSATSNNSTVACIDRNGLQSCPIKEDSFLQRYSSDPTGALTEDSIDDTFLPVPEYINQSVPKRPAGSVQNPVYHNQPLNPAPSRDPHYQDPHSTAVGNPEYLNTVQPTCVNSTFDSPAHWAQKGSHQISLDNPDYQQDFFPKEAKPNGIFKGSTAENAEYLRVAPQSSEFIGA
Series [2] has as its target Vascular endothelial growth factor receptor 2 (Homo sapiens, UniProt P35968). Description: Inhibition of recombinant human VEGFR-2 using poly(Glu4/Tyr) and [gamma32P]ATP as substrate after 1 hr by scintillation counting.
The subject of another series is HT-29. Description: Antiproliferative activity against human HT-29 cells after 72 hrs by MTS assay. The note with it: HT-29, 72 h. For orientation: Tetrazolium assays rely on reduction of a dye to a coloured formazan, in cell work by metabolically active cells.
The test system of another series is MCF7. The series is described as follows: Antiproliferative activity against human MCF7 cells after 72 hrs by MTS assay. Particulars: MCF7, 72 h.
A short description of series [3]: Solubility of the compound. It is filed as physicochemical.
The test system of a further series is PC-3. Description: Antiproliferative activity against human PC3 cells at 10 uM after 72 hrs by MTS assay. It is filed as functional. The note with it: PC-3, 72 h.

Sequence of Vascular endothelial growth factor receptor 2 (P35968 whole entry): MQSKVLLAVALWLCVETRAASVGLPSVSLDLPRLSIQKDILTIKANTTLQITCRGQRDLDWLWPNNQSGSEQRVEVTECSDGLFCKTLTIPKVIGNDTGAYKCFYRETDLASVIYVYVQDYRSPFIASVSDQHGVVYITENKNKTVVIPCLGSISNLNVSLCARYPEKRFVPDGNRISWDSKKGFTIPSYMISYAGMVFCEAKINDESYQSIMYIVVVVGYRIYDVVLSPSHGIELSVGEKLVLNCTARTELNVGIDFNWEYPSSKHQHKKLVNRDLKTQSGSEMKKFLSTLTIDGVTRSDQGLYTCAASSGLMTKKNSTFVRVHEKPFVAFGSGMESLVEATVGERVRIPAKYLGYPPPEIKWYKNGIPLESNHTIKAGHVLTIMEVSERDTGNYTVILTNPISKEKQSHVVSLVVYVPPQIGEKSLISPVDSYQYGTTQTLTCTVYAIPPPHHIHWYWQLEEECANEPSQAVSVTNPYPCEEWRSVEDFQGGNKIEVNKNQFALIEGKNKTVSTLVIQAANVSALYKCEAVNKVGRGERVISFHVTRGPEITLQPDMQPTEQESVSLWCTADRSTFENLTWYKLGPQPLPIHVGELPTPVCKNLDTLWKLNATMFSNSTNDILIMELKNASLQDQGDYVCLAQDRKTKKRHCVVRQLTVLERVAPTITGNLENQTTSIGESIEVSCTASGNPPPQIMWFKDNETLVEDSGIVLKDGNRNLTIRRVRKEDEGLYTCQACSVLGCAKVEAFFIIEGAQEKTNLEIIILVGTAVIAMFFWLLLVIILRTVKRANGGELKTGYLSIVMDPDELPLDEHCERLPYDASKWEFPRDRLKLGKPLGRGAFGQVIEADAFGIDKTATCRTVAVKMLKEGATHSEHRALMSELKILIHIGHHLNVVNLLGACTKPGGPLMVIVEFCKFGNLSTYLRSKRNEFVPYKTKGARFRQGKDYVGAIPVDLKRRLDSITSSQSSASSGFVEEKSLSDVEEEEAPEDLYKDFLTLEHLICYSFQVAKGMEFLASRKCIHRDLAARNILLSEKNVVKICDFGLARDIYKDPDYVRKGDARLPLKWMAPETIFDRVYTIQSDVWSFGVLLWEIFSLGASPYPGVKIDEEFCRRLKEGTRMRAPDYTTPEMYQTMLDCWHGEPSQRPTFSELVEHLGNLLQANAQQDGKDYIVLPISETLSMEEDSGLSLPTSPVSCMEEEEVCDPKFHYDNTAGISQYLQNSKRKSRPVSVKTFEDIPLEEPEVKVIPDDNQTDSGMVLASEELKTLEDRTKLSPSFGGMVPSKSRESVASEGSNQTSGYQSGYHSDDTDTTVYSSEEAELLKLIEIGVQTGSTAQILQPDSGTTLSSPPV

On to `COc1cc2ncnc(Oc3ccc(NC(=O)Nc4cccc(Br)c4)cc3)c2cc1OC`, for which the IC50 (in general, the concentration at which inhibition is half-maximal) was above 10 µM in series [1], 0.006 µM in series [2], 9.1 µM in the series on HT-29 and 9.8 µM in the series on MCF7. Besides, the solubility result in series [3] is “Insoluble”. Further, the inhibition (commonly the change of the read-out against control, counted positive when it falls) at 10 µM with PC-3 came out at 35%.
As for `CCCCOc1cc2c(Nc3ccc(Br)cc3F)ncnc2cc1OCCN(CC)CC`, the half-inhibitory concentration (IC50) in series [1] was above 10 µM; in series [2], 5.3 µM; with HT-29, 3.6 µM; in the series with MCF7, 7.7 µM. At 10 µM the inhibition with PC-3 was 31%.
Consider `CCN(CC)CCOc1cc2ncnc(Nc3ccc(C)c(Br)c3)c2cc1OC`, for which the IC50 in series [1] stood at 9.45 µM; in series [2], 6.45 µM; in the series with HT-29 it was 2.55 µM; in the series with MCF7, 9.6 µM. The compound further returned an inhibition at 10 µM in the series on PC-3 of 36%.
